# Test results reported in ChEMBL document CHEMBL1201862, “PubChem BioAssay data set” (2004).
#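 Cells were grown in 96-well plates and exposed to each compound for 48 hours at five concentrations; endpoints were interpolated linearly between bracketing concentrations, or set to the highest concentration if not reached. The concentration for 50% growth inhibition is given as GI50.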 The source made the active and inactive calls. No stated cut-off is given here; in the data, active = GI50 up to about 1.1 µM and inactive = higher. Where a SMILES comes first, the peptide text is derived from it. [ ]: non-standard residue; d: D form. The star is where a group is joined. NMeAc5c = CNC1(C(=O)O)CCCC1; Boc = CC(C)(C)OC(=O)*; OBn = c1ccc(CO*)cc1
# Assays:
# Experiment in all cases: NCI-60 cell line screen, 48 h
# SR = system: SR
# DU-145 = system: DU-145
# OVCAR-8 = system: OVCAR-8
# SNB-75 = system: SNB-75
# U-251 = system: U-251
# PC-3 = system: PC-3
# SW-620 = system: SW-620
# SF-268 = system: SF-268
# CAKI-1 = system: CAKI-1
# K562 = system: K562
# HT-29 = system: HT-29
# UACC-62 = system: UACC-62
# LOX IMVI = system: LOX IMVI
# MCF7 = system: MCF7
# SN12C = system: SN12C
# Malme-3M = system: Malme-3M
# SK-MEL-2 = system: SK-MEL-2
# SNB-19 = system: SNB-19
# HCC 2998 = system: HCC 2998
# HL-60 = system: HL-60
SMILES,GI50 (SR),GI50 (DU-145),GI50 (OVCAR-8),GI50 (SNB-75),GI50 (U-251),GI50 (PC-3),GI50 (SW-620),GI50 (SF-268),GI50 (CAKI-1),GI50 (K562),GI50 (HT-29),GI50 (UACC-62),GI50 (LOX IMVI),GI50 (MCF7),GI50 (SN12C),GI50 (Malme-3M),GI50 (SK-MEL-2),GI50 (SNB-19),GI50 (HCC 2998),GI50 (HL-60)
O=c1onc2n1-c1ccc(Cl)cc1C(=S)N1CSCC21 (stereo unspecified),15.9 µM (inactive),34.2 µM (inactive),18.1 µM (inactive),30.4 µM (inactive),18.2 µM (inactive),31.4 µM (inactive),20.7 µM (inactive),25.8 µM (inactive),64.1 µM (inactive),25.4 µM (inactive),24.5 µM (inactive),67.8 µM (inactive),31.5 µM (inactive),28.4 µM (inactive),29.6 µM (inactive),47.3 µM (inactive),25.1 µM (inactive),22.3 µM (inactive),19.5 µM (inactive),
CN(/N=C/c1cccs1)c1ccc(Cl)cc1[N+](=O)[O-],5.71 µM (inactive),64.4 µM (inactive),40.5 µM (inactive),30.8 µM (inactive),13.7 µM (inactive),38.4 µM (inactive),12.3 µM (inactive),83.4 µM (inactive),63.1 µM (inactive),5.78 µM (inactive),25.9 µM (inactive),47 µM (inactive),,18 µM (inactive),24.5 µM (inactive),,,56.2 µM (inactive),25.8 µM (inactive),6.75 µM (inactive)
CC(=O)Nc1ccc(S(=O)(=O)Nc2nc(-c3ccc(Cl)cc3)cc(N3N=C(c4ccc(Br)cc4)CC3c3ccccc3)n2)cc1 (stereo unspecified),16.2 µM (inactive),20.4 µM (inactive),17.9 µM (inactive),,16.8 µM (inactive),14 µM (inactive),20.4 µM (inactive),,,7.21 µM (inactive),15 µM (inactive),12.6 µM (inactive),15.9 µM (inactive),2.87 µM (inactive),16 µM (inactive),16.1 µM (inactive),14.7 µM (inactive),16 µM (inactive),,14.2 µM (inactive)
CN(C(=O)C(Cc1ccccc1)NC(=O)OC(C)(C)C)C1(C(=O)NC(Cc2ccccc2)C(=O)OCc2ccccc2)CCCC1 (stereo not drawn) (Boc-Phe-[NMeAc5c]-Phe-OBn; configuration not given here),22.2 µM (inactive),58.3 µM (inactive),38 µM (inactive),> 100 µM (inactive),20.9 µM (inactive),28.4 µM (inactive),39.7 µM (inactive),35.4 µM (inactive),,29.8 µM (inactive),22.3 µM (inactive),24.5 µM (inactive),45.1 µM (inactive),32.1 µM (inactive),46.5 µM (inactive),> 100 µM (inactive),44.3 µM (inactive),53.5 µM (inactive),77.4 µM (inactive),24.9 µM (inactive)
N#CC1=C2SCCN2C(=O)C(C#N)C12CCCCC2 (stereo unspecified),> 100 µM (inactive),> 100 µM (inactive),> 100 µM (inactive),> 100 µM (inactive),> 100 µM (inactive),> 100 µM (inactive),> 100 µM (inactive),> 100 µM (inactive),> 100 µM (inactive),> 100 µM (inactive),> 100 µM (inactive),> 100 µM (inactive),> 100 µM (inactive),> 100 µM (inactive),> 100 µM (inactive),> 100 µM (inactive),> 100 µM (inactive),> 100 µM (inactive),> 100 µM (inactive),
O=c1[nH]cnc2cccc(Cl)c12,> 100 µM (inactive),> 100 µM (inactive),> 100 µM (inactive),65.2 µM (inactive),> 100 µM (inactive),> 100 µM (inactive),> 100 µM (inactive),> 100 µM (inactive),> 100 µM (inactive),> 100 µM (inactive),> 100 µM (inactive),> 100 µM (inactive),,> 100 µM (inactive),> 100 µM (inactive),> 100 µM (inactive),> 100 µM (inactive),> 100 µM (inactive),> 100 µM (inactive),> 100 µM (inactive)
CC1(C)[C@@H]2CC[C@@]1(C)[C@@H]1O[C@@H](O[C@@H](CN)c3cc(Cl)c(OCc4ccccc4)c(OCc4ccccc4)c3)C[C@H]21,0.0627 µM (active),0.191 µM (active),0.189 µM (active),0.163 µM (active),0.158 µM (active),0.158 µM (active),0.191 µM (active),0.192 µM (active),0.165 µM (active),0.156 µM (active),0.151 µM (active),,0.166 µM (active),0.134 µM (active),0.183 µM (active),0.183 µM (active),0.173 µM (active),0.183 µM (active),,0.177 µM (active)
CCCCCCCCCCCCOc1ccc(/C=C/C2=[N+](CCCl)CCO2)cc1,19.6 µM (inactive),> 100 µM (inactive),56.4 µM (inactive),45.5 µM (inactive),24.3 µM (inactive),58.1 µM (inactive),> 100 µM (inactive),,> 100 µM (inactive),21.3 µM (inactive),> 100 µM (inactive),93.3 µM (inactive),17.7 µM (inactive),54.2 µM (inactive),77.4 µM (inactive),> 100 µM (inactive),> 100 µM (inactive),> 100 µM (inactive),39.1 µM (inactive),12.8 µM (inactive)
CC[C@]1(O)C[C@H]2CN(CCc3c([nH]c4ccccc34)[C@@](C(=O)OC)(c3cc4c(cc3OC)N(C)[C@H]3[C@@](O)(C(=O)OC)[C@H](OC(C)=O)[C@]5(CC)C=CCN6CC[C@]43[C@@H]65)C2)C1,0.000425 µM (active),0.000395 µM (active),0.00129 µM (active),,0.000715 µM (active),0.000412 µM (active),0.000564 µM (active),0.000986 µM (active),0.00706 µM (active),0.000508 µM (active),0.000408 µM (active),0.000373 µM (active),0.000538 µM (active),0.00045 µM (active),0.00132 µM (active),0.000557 µM (active),0.000762 µM (active),0.00115 µM (active),0.000959 µM (active),0.00042 µM (active)
COc1ccc2c(c1)NC1(CCN(CCCC(=O)c3ccc(F)cc3)CC1)N=N2,15.7 µM (inactive),18.5 µM (inactive),,15.1 µM (inactive),19.2 µM (inactive),23.1 µM (inactive),23.8 µM (inactive),41.8 µM (inactive),29.6 µM (inactive),19.4 µM (inactive),24.6 µM (inactive),20.9 µM (inactive),18.7 µM (inactive),17.4 µM (inactive),21 µM (inactive),15.2 µM (inactive),17.9 µM (inactive),35.3 µM (inactive),14.8 µM (inactive),15.2 µM (inactive)
Cn1c2c(c3ccccc31)CCN1OCC=C[C@@H](C(=O)O)[C@@H]21,> 100 µM (inactive),> 100 µM (inactive),> 100 µM (inactive),82 µM (inactive),> 100 µM (inactive),> 100 µM (inactive),> 100 µM (inactive),> 100 µM (inactive),> 100 µM (inactive),,> 100 µM (inactive),> 100 µM (inactive),> 100 µM (inactive),> 100 µM (inactive),> 100 µM (inactive),> 100 µM (inactive),> 100 µM (inactive),> 100 µM (inactive),> 100 µM (inactive),> 100 µM (inactive)
COc1cc(Oc2nc3cc(F)c(F)cc3nc2-c2ccccc2)cc(OC)c1OC,78.9 µM (inactive),> 100 µM (inactive),> 100 µM (inactive),20.4 µM (inactive),40.3 µM (inactive),40.3 µM (inactive),> 100 µM (inactive),59 µM (inactive),46 µM (inactive),,89.3 µM (inactive),25.8 µM (inactive),81.8 µM (inactive),29.5 µM (inactive),> 100 µM (inactive),32 µM (inactive),> 100 µM (inactive),34.2 µM (inactive),,> 100 µM (inactive)
CC(C)(C)OC(=O)NCC(C#N)CNC(=O)OC(C)(C)C,> 100 µM (inactive),> 100 µM (inactive),> 100 µM (inactive),,> 100 µM (inactive),> 100 µM (inactive),> 100 µM (inactive),> 100 µM (inactive),> 10 µM (inactive),> 100 µM (inactive),,> 100 µM (inactive),> 100 µM (inactive),> 100 µM (inactive),> 100 µM (inactive),> 100 µM (inactive),,> 100 µM (inactive),> 100 µM (inactive),> 100 µM (inactive)
COc1ccc(-n2c(N)c(C#N)c(C#N)c2-c2ccccc2)cc1,> 100 µM (inactive),> 100 µM (inactive),84.7 µM (inactive),2.74 µM (inactive),30.1 µM (inactive),19.8 µM (inactive),> 100 µM (inactive),31.1 µM (inactive),> 100 µM (inactive),,> 100 µM (inactive),10.7 µM (inactive),> 100 µM (inactive),> 100 µM (inactive),> 100 µM (inactive),> 100 µM (inactive),22.8 µM (inactive),29.6 µM (inactive),> 100 µM (inactive),> 100 µM (inactive)
Cc1cc(C(C)(C)C)cc(CNC2CCCCC2)c1O,21.8 µM (inactive),21.3 µM (inactive),17.3 µM (inactive),12.2 µM (inactive),16.3 µM (inactive),16.5 µM (inactive),19.9 µM (inactive),16.1 µM (inactive),16.4 µM (inactive),21.7 µM (inactive),17.3 µM (inactive),16 µM (inactive),16 µM (inactive),18.1 µM (inactive),15.8 µM (inactive),14.3 µM (inactive),17.7 µM (inactive),16.6 µM (inactive),3 µM (inactive),
